The text below walks through data of ChEMBL document CHEMBL1201862, “PubChem BioAssay data set” (2004).

Calls of active or inactive are those of the source. Bounds are passed on as bounds.

Assay [1] has as its system BJ. The assay can be described thus: BJ-TERT fibroblast viability loss – cell-based, RAS-independent, luminescence, dose response (AID 1933). The class given is functional. The settings on record: Homo sapiens.
Assay [2] concerns BJ. The assay can be described thus: BJ-TERT-LT-ST fibroblast viability loss – cell-based, RAS-independent, luminescence, dose response (AID 1935).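 Note: BJ fibroblasts immortalized with TERT plus LT and ST oncogenes.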 It counts as functional. The settings on record: Homo sapiens.
A short description of assay [3]: non-specific 3'UTR reporter inhibition in Clone20-Shn3RL – cell-based, Renilla luciferase, cherry-picked, counter-screen for Shn3 inhibitor project, dose response (AID 624133). The class given is functional.
The nature of assay [4]: reduction of Shn3 3'UTR-driven luciferase in osteoblasts – cell-based, Clone20 osteoblasts, firefly luciferase, cherry-picked, dose response (AID 624132).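 Note: firefly luciferase luminescence from reporter carrying the Shn3 3'UTR in osteoblasts.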 It counts as functional.
The target of assay [5] is ATP-dependent molecular chaperone HSP82 (Candida albicans (strain WO-1) (Yeast), UniProt C4YTQ8). The assay can be described thus: steroid-induced GRE reporter decrease in yeast – S. cerevisiae, luminescence, Hsp90 inhibitor project, dose response (AID 2400).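 Note: beta-galactosidase luminescence from glucocorticoid response element reporter as proxy for Hsp90 function; inhibitor potency where signal loss means Hsp90 inhibition.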 It counts as functional, cell-based.
Assay [6] concerns the target Cytochrome P450 2C19 (Homo sapiens, UniProt P33261). The assay can be described thus: Cytochrome panel assay with activity outcomes. Panel member name: p450-cyp2c19 Compounds with AC50 equal or less than 10 uM are considered active. It counts as functional. As to conditions: read-out: AC50.
For assay [7], the system named is Vero. The assay can be described thus: cells. It counts as functional, cell-based. As to conditions: Chlorocebus sabaeus.
The target in assay [8] is Cytochrome P450 2D6 (Homo sapiens, UniProt P10635).
The test system of assay [9] is Streptococcus. Kind of assay: GAS UMAA2166 growth inhibition – luminescence, BacTiterGlo, counter-screen for streptokinase expression inhibitor project, dose response (AID 1915).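 Note: potency for reduction of bacterial viability or growth.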 The class given is functional, organism-based.
Assay [10] is described as follows: fluconazole-exposed Candida albicans growth modulators – fluorescence, retest, confirmation (AID 2467). The class given is functional, cell-based.
A short description of assay [11]: cells. It counts as functional, cell-based.
Assay [12] addresses Heat shock protein HSP 90-alpha (Homo sapiens, UniProt P07900). The class given is functional, organism-based.
The nature of assay [13]: NIH-3T3 fibroblast cytotoxicity, dose response, cytotoxicity control, cell-based, fluorescence, Alamar Blue, secondary assay (AID 2327).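 Note: NIH-3T3 mouse fibroblasts cultured with fluconazole at 8 µg/mL.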 It counts as functional. (Resazurin is reduced to fluorescent resorufin, in cell work by metabolically active cells.)
The subject of assay [14] is INS1. Kind of assay: INS-1E survival protection against cytokine death – cell-based, luminescence, retest, dose response (AID 449756).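 Note: cell death triggered by IL-1 beta plus TNF-alpha plus IFN-gamma mixture; protective hits raise ATP signal compared with cytokine alone wells.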 The class given is functional. The settings on record: Rattus norvegicus.
A short description of assay [15]: DRD fibroblast viability loss – cell-based, non-viral oncogenic, luminescence, dose response (AID 1934). It counts as functional. The settings on record: Homo sapiens.
Assay [16] deals with Serine/threonine-protein phosphatase (Candida dubliniensis (strain CD36 / CBS 7987 / NCPF 3949 / NRRLY-17841) (Yeast), UniProt B9W6M3). The assay can be described thus: blockers of CaCl2-induced CDRE-lacZ signaling – S. cerevisiae, luminescence, secondary, dose response (AID 2388).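 Note: yeast reporter cells carrying a calcineurin-responsive lacZ construct stimulated with calcium chloride; luminescent beta-galactosidase reporter signal in whole cells rather than isolated phosphatase activity; potency for inhibition where a drop in reporter signal means calcineurin blockade.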 It counts as functional, cell-based.
The nature of assay [17]: cells. It counts as functional, cell-based. The source holds these as a separate data set.
The subject of assay [18] is Streptococcus sp. 'group A'. The assay can be described thus: Streptococcus pyogenes SK(-)GAS viability under kanamycin – luminescence, BacTiterGlo, confirmation, counter-screen for streptokinase expression inhibitor project, dose response (AID 1900). The class given is functional, organism-based. Background: A counterscreen serves to expose hits that act by an unwanted route or on another target.

The target of assay [19] is T1, Cytochrome P450 1A2 (Homo sapiens, UniProt P05177).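 Note: PubChem cytochrome P450 panel assay, CYP1A2 panel member.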
T1 sequence (P05177 whole entry): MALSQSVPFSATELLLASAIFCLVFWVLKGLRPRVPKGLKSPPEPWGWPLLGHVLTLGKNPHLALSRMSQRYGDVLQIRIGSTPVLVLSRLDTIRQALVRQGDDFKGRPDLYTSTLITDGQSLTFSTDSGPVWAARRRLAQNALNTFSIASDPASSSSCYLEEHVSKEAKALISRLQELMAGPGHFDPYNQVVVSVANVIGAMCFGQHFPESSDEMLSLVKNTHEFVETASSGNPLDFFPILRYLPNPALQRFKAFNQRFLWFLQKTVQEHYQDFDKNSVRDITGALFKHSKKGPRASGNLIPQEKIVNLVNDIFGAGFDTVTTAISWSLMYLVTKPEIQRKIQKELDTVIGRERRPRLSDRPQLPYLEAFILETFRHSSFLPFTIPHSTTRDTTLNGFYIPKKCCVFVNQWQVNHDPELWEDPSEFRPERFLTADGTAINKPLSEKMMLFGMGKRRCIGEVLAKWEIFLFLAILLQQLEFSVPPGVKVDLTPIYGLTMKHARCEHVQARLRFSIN

Assay [20] deals with BJ. Kind of assay: cells. The class given is functional, cell-based. As to conditions: Homo sapiens.
In assay [21] the test system is Vero. The assay can be described thus: cells. The class given is functional. The settings on record: Chlorocebus sabaeus.
In assay [22] the target is T2, Beta-2 adrenergic receptor (Homo sapiens, UniProt P07550). Kind of assay: Dose response for HTS for Beta-2AR agonists via FAP method from Powderset3. The class given is functional.
T2 sequence (P07550 whole entry): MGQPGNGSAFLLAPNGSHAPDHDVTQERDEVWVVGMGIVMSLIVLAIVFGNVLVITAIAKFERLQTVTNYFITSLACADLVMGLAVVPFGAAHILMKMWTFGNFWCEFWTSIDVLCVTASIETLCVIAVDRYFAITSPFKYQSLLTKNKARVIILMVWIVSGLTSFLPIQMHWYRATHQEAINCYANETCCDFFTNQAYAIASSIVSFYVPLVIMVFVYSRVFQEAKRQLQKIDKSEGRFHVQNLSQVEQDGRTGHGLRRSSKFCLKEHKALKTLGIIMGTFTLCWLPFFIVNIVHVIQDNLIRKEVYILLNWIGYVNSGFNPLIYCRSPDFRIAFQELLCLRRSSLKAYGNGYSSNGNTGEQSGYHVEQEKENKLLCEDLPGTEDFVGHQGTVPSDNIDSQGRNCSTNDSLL
Assay [23] has as its target T2, Beta-2 adrenergic receptor. The assay can be described thus: ADRB2 activation measured by internalization – cell-based, FAP fluorogen, flow cytometry, cherry pick 1, dose response (AID 588763). The class given is functional. (In general: In flow cytometry, cells or beads pass a laser one at a time.)
The nature of assay [24]: Luminescence Cell-Based Dose Retest to Confirm Inhibitors of Cancer Stem Cells. [Related pubchem assays (depositor defined):AID2717, AID2721]. The class given is functional. The settings on record: Homo sapiens.
In assay [25] the target is T3, Streptokinase A (Streptococcus pyogenes serotype M1, UniProt P10520).
T3 sequence (P10520 whole entry): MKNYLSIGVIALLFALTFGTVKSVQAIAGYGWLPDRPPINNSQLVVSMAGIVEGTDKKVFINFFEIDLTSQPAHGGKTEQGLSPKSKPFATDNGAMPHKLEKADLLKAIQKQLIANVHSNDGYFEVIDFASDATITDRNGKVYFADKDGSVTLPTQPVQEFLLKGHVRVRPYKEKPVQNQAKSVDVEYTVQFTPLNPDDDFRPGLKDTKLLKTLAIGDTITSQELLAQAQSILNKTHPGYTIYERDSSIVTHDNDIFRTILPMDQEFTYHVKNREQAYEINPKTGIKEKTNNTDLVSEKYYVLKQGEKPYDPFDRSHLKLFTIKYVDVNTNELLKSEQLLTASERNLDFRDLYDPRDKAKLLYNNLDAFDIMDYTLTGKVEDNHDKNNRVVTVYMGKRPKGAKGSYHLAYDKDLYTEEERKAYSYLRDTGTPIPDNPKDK
Kind of assay: viability-normalized secreted streptokinase activity reduction – plasminogen activation absorbance, OD405, dose response (AID 1914).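 Note: secreted streptokinase activity via plasminogen activation per viability signal from cell pellet.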 The class given is functional, Streptococcus pyogenes M1 GAS.

The target of assay [26] is Neurotensin receptor type 1 (Homo sapiens, UniProt P30989). It counts as functional.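 Note: Image-based confirmatory dose-response assay measuring agonist activity at NTR1; NTR1-expressing U2OS osteosarcoma cells imaged for beta-arrestin GFP spot formation; agonist potency where compounds increase beta-arrestin recruitment.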
Chain of Neurotensin receptor type 1 (P30989 whole entry): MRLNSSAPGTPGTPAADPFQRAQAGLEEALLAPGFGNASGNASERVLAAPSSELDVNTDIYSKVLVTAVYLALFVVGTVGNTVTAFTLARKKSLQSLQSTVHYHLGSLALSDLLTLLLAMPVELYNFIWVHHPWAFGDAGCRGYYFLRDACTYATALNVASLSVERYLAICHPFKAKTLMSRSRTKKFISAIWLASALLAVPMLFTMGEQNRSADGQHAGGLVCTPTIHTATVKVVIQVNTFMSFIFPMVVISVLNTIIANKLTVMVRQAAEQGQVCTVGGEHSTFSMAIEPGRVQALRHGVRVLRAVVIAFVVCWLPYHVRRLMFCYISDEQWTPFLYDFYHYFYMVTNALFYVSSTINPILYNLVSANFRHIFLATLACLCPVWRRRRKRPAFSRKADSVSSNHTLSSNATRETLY
For assay [27], the target named is T4, Fatty acid synthase (Homo sapiens, UniProt P49327). Kind of assay: inhibition of human FAS-TE enzyme activity – biochemical, endpoint fluorescence intensity, uHTS hits, dose response (AID 624327).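 Note: fluorescence from hydrolysis of an O-methyl fluorescein acyl ester substrate by the enzyme.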 It counts as functional.
T4 sequence (P49327 whole entry): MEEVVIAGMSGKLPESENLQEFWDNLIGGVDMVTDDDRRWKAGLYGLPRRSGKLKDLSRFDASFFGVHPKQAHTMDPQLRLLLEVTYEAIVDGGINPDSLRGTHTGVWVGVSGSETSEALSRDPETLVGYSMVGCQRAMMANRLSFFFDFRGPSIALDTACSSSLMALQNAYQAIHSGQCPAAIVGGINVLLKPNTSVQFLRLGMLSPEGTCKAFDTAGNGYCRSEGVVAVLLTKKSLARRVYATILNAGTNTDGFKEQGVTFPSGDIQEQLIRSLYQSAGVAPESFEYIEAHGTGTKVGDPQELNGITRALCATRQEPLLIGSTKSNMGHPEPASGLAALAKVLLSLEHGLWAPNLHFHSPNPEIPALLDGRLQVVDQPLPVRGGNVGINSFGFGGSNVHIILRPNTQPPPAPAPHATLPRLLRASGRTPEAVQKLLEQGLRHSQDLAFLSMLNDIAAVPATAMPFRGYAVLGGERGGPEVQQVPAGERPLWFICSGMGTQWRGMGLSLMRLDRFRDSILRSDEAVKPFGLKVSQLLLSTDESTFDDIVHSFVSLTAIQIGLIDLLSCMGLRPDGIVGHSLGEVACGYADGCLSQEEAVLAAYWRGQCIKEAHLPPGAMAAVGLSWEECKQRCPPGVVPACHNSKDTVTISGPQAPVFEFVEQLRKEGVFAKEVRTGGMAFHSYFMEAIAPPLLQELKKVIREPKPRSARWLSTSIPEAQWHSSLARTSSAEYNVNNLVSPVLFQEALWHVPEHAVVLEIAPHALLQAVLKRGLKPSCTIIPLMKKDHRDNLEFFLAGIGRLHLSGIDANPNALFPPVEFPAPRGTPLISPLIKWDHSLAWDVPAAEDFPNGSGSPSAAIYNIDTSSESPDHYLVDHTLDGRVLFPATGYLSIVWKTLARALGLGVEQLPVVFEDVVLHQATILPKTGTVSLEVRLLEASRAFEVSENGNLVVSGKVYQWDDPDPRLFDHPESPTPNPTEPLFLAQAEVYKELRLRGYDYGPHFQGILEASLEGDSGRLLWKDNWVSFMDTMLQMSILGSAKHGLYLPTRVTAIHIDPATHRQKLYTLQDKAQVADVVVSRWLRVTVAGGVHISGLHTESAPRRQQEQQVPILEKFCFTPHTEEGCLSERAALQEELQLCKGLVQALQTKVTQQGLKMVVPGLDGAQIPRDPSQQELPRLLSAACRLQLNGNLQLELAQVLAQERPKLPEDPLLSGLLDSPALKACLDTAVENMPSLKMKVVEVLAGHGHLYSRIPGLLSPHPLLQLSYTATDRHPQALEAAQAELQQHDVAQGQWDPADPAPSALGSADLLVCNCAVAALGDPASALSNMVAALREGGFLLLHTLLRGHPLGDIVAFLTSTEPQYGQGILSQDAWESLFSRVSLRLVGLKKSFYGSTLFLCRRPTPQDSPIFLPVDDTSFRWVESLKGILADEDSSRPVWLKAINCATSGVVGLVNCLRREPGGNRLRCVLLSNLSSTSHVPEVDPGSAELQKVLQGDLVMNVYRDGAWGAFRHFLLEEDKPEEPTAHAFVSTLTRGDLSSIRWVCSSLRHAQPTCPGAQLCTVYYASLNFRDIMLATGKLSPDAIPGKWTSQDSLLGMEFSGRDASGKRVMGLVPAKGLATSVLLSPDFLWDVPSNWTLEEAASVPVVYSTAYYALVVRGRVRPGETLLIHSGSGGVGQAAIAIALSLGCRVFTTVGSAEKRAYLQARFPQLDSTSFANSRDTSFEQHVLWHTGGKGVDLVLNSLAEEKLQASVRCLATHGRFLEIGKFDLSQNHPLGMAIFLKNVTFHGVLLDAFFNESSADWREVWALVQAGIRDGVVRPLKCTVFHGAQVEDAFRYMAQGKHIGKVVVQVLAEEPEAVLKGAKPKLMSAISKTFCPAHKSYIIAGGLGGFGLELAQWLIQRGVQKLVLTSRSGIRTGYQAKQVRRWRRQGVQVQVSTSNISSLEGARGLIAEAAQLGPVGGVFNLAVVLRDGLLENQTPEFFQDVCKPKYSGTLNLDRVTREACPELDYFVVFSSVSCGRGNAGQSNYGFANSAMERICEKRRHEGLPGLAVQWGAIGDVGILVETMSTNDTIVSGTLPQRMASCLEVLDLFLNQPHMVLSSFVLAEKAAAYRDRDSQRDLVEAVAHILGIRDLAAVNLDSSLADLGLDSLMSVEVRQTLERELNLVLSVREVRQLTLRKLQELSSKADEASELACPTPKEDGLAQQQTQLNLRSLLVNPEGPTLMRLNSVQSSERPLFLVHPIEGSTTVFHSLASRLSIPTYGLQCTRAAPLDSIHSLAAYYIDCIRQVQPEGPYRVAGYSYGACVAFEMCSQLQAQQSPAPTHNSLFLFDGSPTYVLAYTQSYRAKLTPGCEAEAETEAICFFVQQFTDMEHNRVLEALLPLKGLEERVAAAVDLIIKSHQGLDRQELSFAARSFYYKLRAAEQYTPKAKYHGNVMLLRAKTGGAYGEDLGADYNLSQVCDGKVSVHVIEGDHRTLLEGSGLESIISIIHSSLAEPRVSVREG
Assay [28] deals with T5, Endoribonuclease toxin MazF (Escherichia coli K-12, UniProt P0AE70). The assay can be described thus: activation of MazEF endoribonuclease cleavage – biochemical, fluorescence, single-stranded RNA substrate, uHTS hits, dose response (AID 588481). It counts as functional.
T5 sequence (P0AE70 whole entry): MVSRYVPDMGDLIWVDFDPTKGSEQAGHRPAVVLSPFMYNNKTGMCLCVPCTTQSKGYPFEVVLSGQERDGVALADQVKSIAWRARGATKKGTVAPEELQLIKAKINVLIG
Assay [29] has as its target T4, Fatty acid synthase. Kind of assay: inhibition of human FAS-TE enzyme activity – biochemical, kinetic fluorescence intensity, dose response (AID 624326).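 Note: rate of fluorescence rise from hydrolysis of a fluorogenic O-methyl fluorescein ester substrate.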 The class given is functional.
Assay [30] can be described thus: viability of uninfected HEp-2 cells – cell-based, HTS, cytotoxicity control for RSV inhibitor project, dose response (AID 2410). The class given is functional. The settings on record: human respiratory syncytial virus.
The target of assay [31] is T5, Endoribonuclease toxin MazF. Kind of assay: substrate-only fluorescence increase artefacts – biochemical, single-stranded RNase substrate, counter-screen for MazEF activator project, dose response (AID 588502). It counts as functional.
Assay [32] concerns Candida albicans. Kind of assay: fluconazole-resistant Candida strain growth inhibitors – CaCi-8 strain, dry powder, set 4, dose response (AID 488950). It counts as functional, organism-based.
Assay [33] has as its target Hexokinase-1 (Homo sapiens, UniProt P19367). The assay can be described thus: SAR analysis of small molecule inhibitors of hexokinase domain containing I (HKDC1) in the hexokinase 1 selectivity assay. [Related pubchem assays (depositor defined):AID493160, AID493190]. The class given is functional.
Assay [34] has as its target T6, Hexokinase HKDC1 (Homo sapiens, UniProt Q2TB90).
T6 sequence (Q2TB90 whole entry): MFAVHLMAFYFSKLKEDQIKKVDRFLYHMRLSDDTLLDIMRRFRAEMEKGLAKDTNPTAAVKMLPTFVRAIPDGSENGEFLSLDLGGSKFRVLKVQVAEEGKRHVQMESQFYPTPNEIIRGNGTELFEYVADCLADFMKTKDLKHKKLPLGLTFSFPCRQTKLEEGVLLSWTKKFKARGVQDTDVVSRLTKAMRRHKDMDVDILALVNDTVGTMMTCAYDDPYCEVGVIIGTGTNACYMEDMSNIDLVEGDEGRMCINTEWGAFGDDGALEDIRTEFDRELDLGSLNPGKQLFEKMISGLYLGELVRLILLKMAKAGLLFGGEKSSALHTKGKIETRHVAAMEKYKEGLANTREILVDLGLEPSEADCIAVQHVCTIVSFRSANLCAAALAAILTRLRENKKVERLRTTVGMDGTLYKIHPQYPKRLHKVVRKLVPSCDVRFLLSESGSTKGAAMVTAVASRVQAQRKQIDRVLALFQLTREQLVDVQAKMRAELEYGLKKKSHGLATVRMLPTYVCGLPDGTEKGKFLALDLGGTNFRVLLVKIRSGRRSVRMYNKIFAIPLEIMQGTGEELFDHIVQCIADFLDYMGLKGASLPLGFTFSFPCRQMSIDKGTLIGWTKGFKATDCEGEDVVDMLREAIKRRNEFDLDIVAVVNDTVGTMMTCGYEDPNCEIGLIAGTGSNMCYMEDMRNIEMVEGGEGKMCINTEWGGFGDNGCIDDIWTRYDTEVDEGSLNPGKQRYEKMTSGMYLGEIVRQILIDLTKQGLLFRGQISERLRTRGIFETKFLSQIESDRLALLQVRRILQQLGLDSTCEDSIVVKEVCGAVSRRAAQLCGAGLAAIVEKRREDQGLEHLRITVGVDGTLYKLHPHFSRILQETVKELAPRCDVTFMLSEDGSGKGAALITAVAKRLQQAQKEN
Kind of assay: SAR analysis of small molecule inhibitors of hexokinase domain containing I (HKDC1). [Related pubchem assays (depositor defined):AID493160, AID493190]. The class given is functional.

A short description of assay [35]: suppression of NO production in INS-1E cells – cell-based, Griess absorbance, dry powder, set 3, dose response (AID 488870). It counts as functional. As to conditions: Rattus norvegicus.
The test system of assay [36] is INS1. The assay can be described thus: INS-1E mitochondrial potential loss inhibitors – cell-based, JC-1 fluorescence, dry powder, set 2, dose response (AID 488867). The class given is functional. The settings on record: Rattus norvegicus.

Chain of Hexokinase-1 (P19367 whole entry, the tested form may be a part): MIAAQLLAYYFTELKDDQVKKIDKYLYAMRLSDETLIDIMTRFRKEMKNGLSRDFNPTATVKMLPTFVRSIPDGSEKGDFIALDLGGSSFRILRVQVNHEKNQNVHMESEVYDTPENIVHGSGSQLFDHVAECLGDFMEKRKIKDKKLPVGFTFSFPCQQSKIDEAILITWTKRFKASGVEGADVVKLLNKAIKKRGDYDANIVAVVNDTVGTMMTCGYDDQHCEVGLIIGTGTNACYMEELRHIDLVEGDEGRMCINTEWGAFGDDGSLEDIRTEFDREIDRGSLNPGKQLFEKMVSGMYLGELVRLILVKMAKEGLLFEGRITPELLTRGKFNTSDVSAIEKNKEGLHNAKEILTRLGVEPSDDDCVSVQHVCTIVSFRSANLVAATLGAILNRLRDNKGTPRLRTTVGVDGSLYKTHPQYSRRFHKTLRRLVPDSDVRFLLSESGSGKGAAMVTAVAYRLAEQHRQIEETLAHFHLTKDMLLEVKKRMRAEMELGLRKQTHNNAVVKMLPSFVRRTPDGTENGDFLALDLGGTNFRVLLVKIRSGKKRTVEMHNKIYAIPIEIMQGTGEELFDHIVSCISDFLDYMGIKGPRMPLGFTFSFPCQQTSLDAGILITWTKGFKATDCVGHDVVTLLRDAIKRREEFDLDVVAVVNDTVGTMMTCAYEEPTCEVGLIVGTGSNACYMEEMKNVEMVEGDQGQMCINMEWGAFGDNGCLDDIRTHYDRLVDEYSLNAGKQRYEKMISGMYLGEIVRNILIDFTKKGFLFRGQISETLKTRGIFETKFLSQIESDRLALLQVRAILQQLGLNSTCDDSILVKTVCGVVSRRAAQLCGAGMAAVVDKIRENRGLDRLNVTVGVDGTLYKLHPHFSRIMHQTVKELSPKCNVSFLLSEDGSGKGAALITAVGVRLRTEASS
Chain of Cytochrome P450 2C19 (P33261 whole entry): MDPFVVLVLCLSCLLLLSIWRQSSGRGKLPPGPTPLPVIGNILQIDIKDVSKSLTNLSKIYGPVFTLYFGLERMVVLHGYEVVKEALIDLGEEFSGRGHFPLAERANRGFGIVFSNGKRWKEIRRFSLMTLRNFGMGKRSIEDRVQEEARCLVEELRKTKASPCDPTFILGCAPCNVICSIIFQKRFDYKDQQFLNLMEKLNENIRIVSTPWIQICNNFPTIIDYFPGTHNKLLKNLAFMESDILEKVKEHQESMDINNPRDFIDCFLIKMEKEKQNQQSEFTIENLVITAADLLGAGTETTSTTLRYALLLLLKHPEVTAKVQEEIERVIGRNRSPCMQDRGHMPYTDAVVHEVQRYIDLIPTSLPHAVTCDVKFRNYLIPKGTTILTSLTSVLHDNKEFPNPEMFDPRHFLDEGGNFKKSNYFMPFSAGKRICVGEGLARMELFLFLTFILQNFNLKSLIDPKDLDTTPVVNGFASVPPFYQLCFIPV

One may read the EC50 as the concentration at which the effect is half-maximal. As a reminder, the AC50 is the concentration at which the activity in the assay is half-maximal. What is called IC50 is the midpoint of a concentration-inhibition curve. By CC50 is commonly meant the concentration at which the toxic effect on the cells reaches its halfway point. For the compound `Oc1c(CN2CCN(c3ccccc3)CC2)cc(Br)c2cccnc12`, the EC50 in assay [1] was 5.2 µM (active); in assay [2], 8.16 µM (inconclusive); in assay [5], 21.3 µM (active); in assay [9] it was 2.95 µM (active); in [10], 0.656 µM (active); in assay [11], 62.6 µM (active). Besides, the EC50 in assay [13] was > 160 µM (inconclusive); in assay [15], 14 µM (active); in assay [16], > 180 µM (inactive); in [17], > 350 µM (not active); in assay [18], 1.47 µM (active); in assay [20], 12.7 µM (inconclusive). Also, the AC50 in assay [3] is 1.84 µM (active); in [4], 1.92 µM (active); in assay [6], 3.98 µM (inconclusive); in assay [8] it was 3.98 µM (inconclusive); in [12], 4.59 µM (active); in assay [14] it was 2.42 µM (active). Also, the AC50 in assay [19] is 1.26 µM (inconclusive). Also, in assay [7], the IC50 is > 12.5 µM (active). Moreover, the CC50 in assay [21] is 3.51 µM (active).

Turning to `CC(Oc1ccc(Cl)cc1Cl)c1nc(-c2ccc(NC(=O)c3ccccn3)cc2)no1` (stereo not drawn), the EC50 in assay [22] was 0.0883 µM (active); in assay [23], 0.973 µM (active).

Regarding `O=[N+]([O-])c1ccc(-c2nc(Nc3cccc(O)c3)c3ccccc3n2)cc1`, in assay [24], the AC50 was 3.24 µM (active). Besides, the EC50 in [25] was > 150 µM (not active); in assay [26], 15.3 µM (active); in assay [9] it was 8.36 µM (active); in assay [28], > 99 µM (inactive); in assay [18] it was 11.4 µM (active); in assay [31] it was > 99 µM (inactive). Further, the figures for the IC50 in assay [27] and in [29] were 12.9 µM (active) and 13.2 µM (active), respectively. Further, the CC50 in [30] is 22 µM (active).

For the compound `O=C(c1ccc(Cl)cc1)N1CCN(c2ccnc3ccccc23)CC1`, the concentration at half-maximal activity (AC50) in [32] is 9.81 µM (active).

As to `O=c1c2ccccc2nc(/C=C/c2ccncc2)n1-c1ccccc1`, the IC50 in assay [33] and in [34] was > 80 µM (inactive) each time.

For `C[C@@H]1CN([C@@H](C)CO)C(=O)c2cccc(NC(=O)Nc3cccc4ccccc34)c2O[C@H]1CN(C)S(=O)(=O)c1ccc2c(c1)OCCCO2`, the AC50 was 32.2 µM (active) in [35] and 253 µM (active) in [36].
